According to PMC2880208 (Cancer research, 2010):
Read-outs that look alike come from different tables or passages of the source.

Legend:
U87 cells [1] = experiment: Drug sensitivity; format: cell-based, human; settings: U87, gefitinib alone 0.001-50 μM
[2] = cited from earlier work
[3] = subcutaneous glioma xenografts, for 8 hours after a single oral dose of 55 mg/kg; cited from earlier work
U87 cells [4] = experiment: Intracellular accumulation of topotecan in vitro; format: cell-based, human; settings: topotecan 0.1 μM, gefitinib 1 or 10 μM, dose-dependent
MT330 cells [5] = experiment: Intracellular accumulation of topotecan in vitro; format: cell-based, human; settings: topotecan 0.1 μM, gefitinib 1 or 10 μM, dose-dependent
MT330 cells [6] = experiment: Drug sensitivity; format: cell-based, human; settings: MT330, gefitinib alone 0.001-50 μM
[7] = format: in vivo, CD1 athymic nude mice; settings: CD1 athymic nude, mouse, iv, 4 mg/kg, 4 mg/kg i.v., mean ± SD
[8] = CD1 nude mice; cited from earlier work
[9] = Intratumor distribution of topotecan; format: in vivo, CD1 nude mice; settings: U87, TPT25: 25 μg/h topotecan, n=8

## COc1cc2ncnc(Nc3ccc(F)c(Cl)c3)c2cc1OCCCN1CCOCC1 [gefitinib]
U87 cells [1]
  Effect on cell growth: did not substantially affect growth
[2]
  Effect of gefitinib on topotecan lactone plasma clearance: halves
[3]
  Intratumor gefitinib concentration: > 20 µM
U87 cells [4]
  Enhancement of topotecan accumulation by gefitinib: ≤ 36%
MT330 cells [5]
  Enhancement of topotecan accumulation by gefitinib: ≤ 36%
MT330 cells [6]
  Effect on cell growth: did not substantially affect growth

## CC[C@@]1(O)C(=O)OCc2c1cc1n(c2=O)Cc2cc3c(CN(C)C)c(O)ccc3nc2-1 [topotecan]
[7]; brain extracellular fluid (microdialysate) / plasma, Pbrain (brain ECF-to-plasma AUC ratio of unbound topotecan lactone), non-tumor-bearing CD1 nude mice, n=7
  Kp: 0.3 ± 0.11
[7]; Pcontralateral (contralateral brain ECF-to-plasma AUC ratio), U87 tumor-bearing mice, n=5
  Kp: 0.42 ± 0.11
Steady-state; 25 μg/h topotecan infusion, before gefitinib, n=15
  Css,plasma (unbound lactone): 34 ± 8 ng/mL
Steady-state; U87, 25 μg/h topotecan infusion, after gefitinib 200 mg/kg, n=10
  Css,tECF (unbound topotecan lactone in tumor ECF): 30 ± 12 ng/mL
Steady-state; U87, 25 μg/h topotecan infusion, before gefitinib, n=10
  Css,tECF (unbound topotecan lactone in tumor ECF): 22 ± 10 ng/mL
Steady-state; U87, TPT12-GEF: 12.5 μg/h topotecan after 200 mg/kg gefitinib, n=3
  Css,tECF (unbound topotecan lactone in tumor ECF): 6.4 ± 0.8 ng/mL
[8]
  Unbound fraction in plasma: 27%
[9]
  Atot,tumor (total topotecan lactone in tumor homogenate at steady-state): 47 ± 21 ng/mg tumor
